In patent publication US10316079B2, “Monoclonal antibody against muramyl peptides” (priority 2012, dated 2019):

How the values were obtained:
[1] = test system: binding of 2E7 to N-acetylmuramyl-L-alanyl-D-isoglutamine conjugated to OVA; assay: Competitive ELISA for antigen specificity of 2E7; design: species or system mouse; settings: concentration dependent, compared with N-acetylmuramyl-L-alanyl-D-isoglutamine
From the text: To enhance the antigenicity of the MDPs, these molecules were conjugated to the human serum albumin (HSA) using a linker molecule. The carboxylic acid moiety of MDPs was first coupled to N-Boc-ethylenediamine, and then the Boc protection group was removed and the resulting amine was linked to HSA with glutaraldehyde. […] The MDP-HSA conjugates were then used to immunize BALB/c mice. Serum antigen-specific titers of the immunized mice were examined by enzyme-linked immunosorbent assay (ELISA) against MDPs conjugated to ovalbumin (OVA) using the same linkage strategy as described above. Generation of hybridoma cell lines, screening of antibody-producing clones, preparation and purification of mAbs, and mAb isotyping were carried out by following standard protocols. Antigen specificity of a mAb was determined using competitive ELISA to test the ability of different MDPs and constituent moieties to inhibit the binding of a mAb to the MDP originally used as antigen for immunization.

Escherichia coli = assay: MPs released into culture supernatant with amoxicillin, competitive ELISA using 2E7; type: cell-based; settings: 40 μg per ml amoxicillin added at OD600=1.5; vs untreated culture
Protocol: (§1) Power Fit equation y=a*(x−b)^c using CurveExpert Basic. The standard curve was used to determine the peptidoglycan to concentration in a sample. […] Both bacteria were grown to OD600=1.5. Each culture was divided into two, and one treated with 40 μg/ml amoxicillin (Atex) and the other untreated. Aliquots were collected at the indicated times and the amount of MPs in the supernatant was determined by competitive ELISA. […] After removing unbound antibodies by PBS washes, the cells were incubated with a FITC-labeled anti-mouse IgG Ab before fluorescence microscopic examination.
(§2) For this test, Gram-positive bacterium Staphylococcus aureus, which has a thick peptidoglycan layer, and […] Escherichia coli, which has a thin peptidoglycan layer, were selected and grown in the presence or absence of amoxicillin. The culture was grown to a density of OD600=1.5 and then divided into two equal aliquots. To one aliquot, amoxicillin was added to a final concentration of 40 μg per ml, and to the other aliquot, no drug was added. Both cultures were allowed to continue to grow. Aliquots of cultures were collected at timed intervals and cells were removed by centrifugation. The amount of MPs in the supernatant was determined by competitive ELISA using 2E7.

Staphylococcus aureus = assay: as above; type: cell-based; settings: 40 μg per ml amoxicillin added at OD600=1.5; vs untreated culture
Protocol: as §1, §2

[2] = test system: bacteria of the mouse microbiota; assay: Blood MP level in mice fed amoxicillin, competitive ELISA using 2E7; type: in vivo; settings: amoxicillin 100 mg/kg fed at 12-h intervals, 4 h after each feeding
Protocol: Amoxicillin was administered orally to 50 mice at 12-h intervals and three mice were sacrificed every 4 h to collect blood for peptidoglycan quantification by ELISA. […] Serial blood samples were taken. Time for blood draw and IV injection are indicated.
The MP level in serum was determined by competitive ELISA using an example of the antibody of the present disclosure, i.e. 2E7.

| Compound | inhibition of 2E7 binding to N-acetylmuramyl-L-alanyl-D-isoglutamine conjugated to OVA [1] | molecules in culture medium that inhibit 2E7 binding to N-acetylmuramyl-L-alanyl-D-isoglutamine (MPs) (Escherichia coli) | molecules in culture medium that inhibit 2E7 binding to N-acetylmuramyl-L-alanyl-D-isoglutamine (MPs) (Staphylococcus aureus) | increase in the blood MP level [2] |
| --- | --- | --- | --- | --- |
| CC(=O)N[C@H]1C(O)O[C@H](CO)[C@@H](O)[C@@H]1O[C@H](C)C(=O)N[C@H](C)C(=O)N[C@H](CCC(=O)O)C(=O)O (stereo partly drawn) [N-acetylmuramyl-L-alanyl-D-glutamate] | almost as effectively as N-acetylmuramyl-L-alanyl-D-isoglutamine | – | – | – |
| CC1(C)S[C@@H]2[C@H](NC(=O)[C@H](N)c3ccc(O)cc3)C(=O)N2[C@H]1C(=O)O [amoxicillin] | – | sharp increase | sharp increase | 20-60% |
| CC(NC(=O)C(C)OC1C(N)C(O)OC(CO)C1O)C(=O)NC(CCC(=O)O)C(=O)O [muramyl-L-alanyl-D-glutamate] | almost as effectively as N-acetylmuramyl-L-alanyl-D-isoglutamine | – | – | – |
| muramyl-L-alanyl-D-isoglutamine | almost as effectively as N-acetylmuramyl-L-alanyl-D-isoglutamine | – | – | – |
